We go through seven compounds from patent US6124280A, “Substituted phenols as novel calcium channel blockers” (Warner-Lambert Company, priority 1998, dated 2000).

Counter-ions that a name gives are not always drawn. Positions of bridges follow the written chain, without caps; N, C: chain ends. No end group written: not given here.

The target in test [1] is T1, N-type voltage gated calcium channels (chicken brain synaptosomes) (Gallus gallus, UniProt A0A8V1AJW5).
T1 construct: K+-stimulated 45Ca influx; auxiliary alpha2delta and beta subunits present but not identified
Briefly: Chick Whole Brain Synaptosomal ^45 Calcium Flux Assay (inhibition of potassium stimulated calcium influx). As to conditions: 20 mM KCl stimulated minus 3 mM KCl basal; 5 min drug pre-incubation, room temperature; 30-second incubation; read-out: Inhibition of ^45 Ca^+2 Influx in Chick Synaptosomes IC50. The format is biochemical. The protocol:
(§1) To measure interaction at the N-type calcium channel and calcium flux inhibition, the effects of the calcium channel blockers were measured in the assays described below.
A compound is assessed at various concentrations for its ability to inhibit this potassium stimulated calcium influx.
One- to five-week old chicks were killed by decapitation and whole brain was removed. The brainstem was discarded, and the remaining brain tissue was placed in ice-cold sucrose buffer (composition: 320 mM sucrose, 5.0 mM TRIS base, 0.1 mM EDTA, pH adjusted to 7.3 with HCl). The total wet weight of pooled brain tissue was determined, and the tissue was homogenized in 10 mL sucrose buffer per gram wet weight. A Potter S-type homogenizer (B. Braun Co.) with a glass tube and teflon pestle was used. Five strokes at 400 rpm were followed by four strokes at 800 rpm. The homogenate was poured into cold centrifuge tubes and centrifuged for 10 minutes at 3000 rpm (1,075 g) in a refrigerated 4° C. RC-5 centrifuge (Sorvall) using an SS-34 rotor. The supernatant was collected and centrifuged at 11,500 rpm (15,800 g) for 10 minutes. The supernatant was discarded, and the pellet was resuspended in 1 mL sucrose buffer. Cold incubation buffer (composition: 1.2 mM MgCl2, 22 mM HEPES, 11 mM glucose, 3 mM KCl, 136 mM choline chloride, pH adjusted to 7.3 with TRIS base) was added slowly to the suspension for a total volume of 30 to 40 mL. This mixture was centrifuged at 7,000 rpm (5,856 g) for 5 minutes. The supernatant was discarded, and the pellet was resuspended in 5 mL of incubation buffer per gram of original wet weight of brain. This synaptosomal suspension was kept on ice until the start of the assay, at which time 35 μL of synaptosome suspension were added to each well of a 96-well filter plate (Millipore) which contained 75 μL incubation buffer with or without drug. Drugs were dissolved in DMSO or H2 O, and the concentration of DMSO was less than or equal to 1%.
Synaptosomes were pre-incubated in the presence or absence of drug for 5 minutes at room temperature before the addition of radioactive calcium. Drugs were present throughout the assay. Two μCi/mL stocks of ^45 CaCl2 were prepared in basal buffer (composition: incubation buffer plus 1 mM CaCl2) and in stimulation buffer (composition: 1.2 mM MgCl2, 22 mM HEPES, 11 mM glucose, 37 mM KCl, 102 mM choline chloride, 1 mM CaCl2, pH adjusted to 7.3 with TRIS base). One hundred microliter of radioactive basal or stimulation buffer were pipetted into a pre-incubated plate of synaptosomes using a Quadra 96 pipetter (Tomtec). The final KCl concentration was 3 mM for the basal condition and 20 mM for the stimulated condition; the final CaCl2 concentration was 0.5 mM with 1 μCi/mL of ^45 CaCl2. The plate was filtered under vacuum after a 30-second incubation with radioactivity. The filters were washed twice with 200 μL of wash buffer (composition: 140 mM choline chloride, 3 mM EGTA, 22 mM HEPES, pH adjusted to 7.3 with TRIS base). Plates were allowed to dry completely. Scintillation fluid was added (20 μL/well), and the plates were counted in a Wallace Microbeta plate counter. Basal ^45 CaCl2 flux (3 mM KCl) was subtracted from stimulated ^45 CaCl2 flux (20 mM KCl) in both control and drug-treated conditions, and data were expressed as percent inhibition of the adjusted control response. Values obtained in this way were plotted as a function of drug concentration and IC50 values were calculated.

In test [2] the target is T2, N-type calcium channels (IMR-32 cells) (Homo sapiens, UniProt Q00975).
T2 construct: host or cells: IMR-32, differentiated with dibutyryl cAMP and bromodeoxyuridine
Briefly: N-type Ca2+ channel blocking potency in IMR-32 cells using fluorescent Ca2+ indicator Indo-1. It counts as cell-based. As to conditions: K+ depolarization, 5 μM nitrendipine present to block L-type channels, 10 min at 30° C., read-out: Inhibition of ^45 Ca^+2 Influx in IMR-32 Cells IC50. The procedure:
as §1
IMR-2 cells are a human tumoral cell line of neural origin. […] Calcium flux into these cells may be induced by stimulation with elevated potassium concentrations. The L-channel component of calcium flux may be blocked by adding 5 μM nitrendipine. The remaining component of calcium entry into the IMR-32 cells is due to calcium flux through N-type calcium channels. Intracellular calcium concentrations are measured using the fluorescent calcium indicator Indo-1. The effect of drug concentration on calcium uptake is studied.
The IMR-32 cell line was obtained from the American Type Culture Collection (Rockville, Md.). Cells were grown in Eagle's Minimum Essential Medium with Earle's salts supplemented with 10% fetal bovine serum, 2 mM L-Gln and antibiotic/antimicotic mixture (Gibco). At approximately 80% confluency, differentiation was induced by the addition of 1 mM dibutyryl cAMP and 2.5 μM bromodeoxyuridine to the medium. After 7 to 13 days of differentiation, cells were detached using 0.5 mM EDTA and loaded with 5 μM Indo-1 acetoxymethyl ester (Molecular Probes, Eugene, Or.) at 30° C. for 45 minutes. Loaded cells were washed twice, resuspended (~10^7 cells/mL) in assay buffer (10 mM HEPES/Tris pH 7.4 in Hank's Balanced Salt Solution without bicarbonate or phenol red containing 0.5% bovine serum albumin) and kept on ice until use. Fluorescence measurements were carried out in a Photon Technology International (PTI, South Brunswick, N.J.) Model RF-F3004 spectrofluorometer with dual emission monochromators using excitation at 350 nm and emission at 400 and 490 nm. The instrument was equipped with a thermostatted cuvette holder with stirring capabilities as well as with a computer-controlled pump which allowed for reagent addition during measurement. Instrument control and data collection was done by PTI's OSCAR software running on an IBM compatible computer. Different concentrations of the test compounds (60 μL in dimethyl sulfoxide) were added to 5.94 mL of assay buffer containing approximately 3×10^6 loaded cells, and 5 μM Nitrendipine (in 30 μL EtOH) to block L-type Ca^2+ channels. Samples were incubated for 10 minutes at 30° C. and then aliquoted into three 10×10 mm disposable acrylic cuvettes. Emission signals at 400 and 490 nm were acquired from each cuvette at 30° C. for 50 seconds. At 20 seconds after the start of reading, cells were depolarized by the addition of 160 μL of stimulation solution (1M KCl, 68 mM CaCl2) to the cuvette via the computer-controlled pump. Ratio of dual emission signals (400 nm/490 nm), which is proportional to intracellular Ca^2+ concentration, was plotted against time, and the difference between maximal response after stimulation and basal value (before stimulation) was determined. Values obtained in this way were plotted as a function of drug concentration. IC50 values of test compounds were calculated by fitting a 4-parameter logistic function to the data using the least squares method.

The next test relates to N-type calcium channel. As to conditions: cited: Bowersox et al. 1994; cited from earlier work.

T1 sequence (A0A8V1AJW5 1-2349): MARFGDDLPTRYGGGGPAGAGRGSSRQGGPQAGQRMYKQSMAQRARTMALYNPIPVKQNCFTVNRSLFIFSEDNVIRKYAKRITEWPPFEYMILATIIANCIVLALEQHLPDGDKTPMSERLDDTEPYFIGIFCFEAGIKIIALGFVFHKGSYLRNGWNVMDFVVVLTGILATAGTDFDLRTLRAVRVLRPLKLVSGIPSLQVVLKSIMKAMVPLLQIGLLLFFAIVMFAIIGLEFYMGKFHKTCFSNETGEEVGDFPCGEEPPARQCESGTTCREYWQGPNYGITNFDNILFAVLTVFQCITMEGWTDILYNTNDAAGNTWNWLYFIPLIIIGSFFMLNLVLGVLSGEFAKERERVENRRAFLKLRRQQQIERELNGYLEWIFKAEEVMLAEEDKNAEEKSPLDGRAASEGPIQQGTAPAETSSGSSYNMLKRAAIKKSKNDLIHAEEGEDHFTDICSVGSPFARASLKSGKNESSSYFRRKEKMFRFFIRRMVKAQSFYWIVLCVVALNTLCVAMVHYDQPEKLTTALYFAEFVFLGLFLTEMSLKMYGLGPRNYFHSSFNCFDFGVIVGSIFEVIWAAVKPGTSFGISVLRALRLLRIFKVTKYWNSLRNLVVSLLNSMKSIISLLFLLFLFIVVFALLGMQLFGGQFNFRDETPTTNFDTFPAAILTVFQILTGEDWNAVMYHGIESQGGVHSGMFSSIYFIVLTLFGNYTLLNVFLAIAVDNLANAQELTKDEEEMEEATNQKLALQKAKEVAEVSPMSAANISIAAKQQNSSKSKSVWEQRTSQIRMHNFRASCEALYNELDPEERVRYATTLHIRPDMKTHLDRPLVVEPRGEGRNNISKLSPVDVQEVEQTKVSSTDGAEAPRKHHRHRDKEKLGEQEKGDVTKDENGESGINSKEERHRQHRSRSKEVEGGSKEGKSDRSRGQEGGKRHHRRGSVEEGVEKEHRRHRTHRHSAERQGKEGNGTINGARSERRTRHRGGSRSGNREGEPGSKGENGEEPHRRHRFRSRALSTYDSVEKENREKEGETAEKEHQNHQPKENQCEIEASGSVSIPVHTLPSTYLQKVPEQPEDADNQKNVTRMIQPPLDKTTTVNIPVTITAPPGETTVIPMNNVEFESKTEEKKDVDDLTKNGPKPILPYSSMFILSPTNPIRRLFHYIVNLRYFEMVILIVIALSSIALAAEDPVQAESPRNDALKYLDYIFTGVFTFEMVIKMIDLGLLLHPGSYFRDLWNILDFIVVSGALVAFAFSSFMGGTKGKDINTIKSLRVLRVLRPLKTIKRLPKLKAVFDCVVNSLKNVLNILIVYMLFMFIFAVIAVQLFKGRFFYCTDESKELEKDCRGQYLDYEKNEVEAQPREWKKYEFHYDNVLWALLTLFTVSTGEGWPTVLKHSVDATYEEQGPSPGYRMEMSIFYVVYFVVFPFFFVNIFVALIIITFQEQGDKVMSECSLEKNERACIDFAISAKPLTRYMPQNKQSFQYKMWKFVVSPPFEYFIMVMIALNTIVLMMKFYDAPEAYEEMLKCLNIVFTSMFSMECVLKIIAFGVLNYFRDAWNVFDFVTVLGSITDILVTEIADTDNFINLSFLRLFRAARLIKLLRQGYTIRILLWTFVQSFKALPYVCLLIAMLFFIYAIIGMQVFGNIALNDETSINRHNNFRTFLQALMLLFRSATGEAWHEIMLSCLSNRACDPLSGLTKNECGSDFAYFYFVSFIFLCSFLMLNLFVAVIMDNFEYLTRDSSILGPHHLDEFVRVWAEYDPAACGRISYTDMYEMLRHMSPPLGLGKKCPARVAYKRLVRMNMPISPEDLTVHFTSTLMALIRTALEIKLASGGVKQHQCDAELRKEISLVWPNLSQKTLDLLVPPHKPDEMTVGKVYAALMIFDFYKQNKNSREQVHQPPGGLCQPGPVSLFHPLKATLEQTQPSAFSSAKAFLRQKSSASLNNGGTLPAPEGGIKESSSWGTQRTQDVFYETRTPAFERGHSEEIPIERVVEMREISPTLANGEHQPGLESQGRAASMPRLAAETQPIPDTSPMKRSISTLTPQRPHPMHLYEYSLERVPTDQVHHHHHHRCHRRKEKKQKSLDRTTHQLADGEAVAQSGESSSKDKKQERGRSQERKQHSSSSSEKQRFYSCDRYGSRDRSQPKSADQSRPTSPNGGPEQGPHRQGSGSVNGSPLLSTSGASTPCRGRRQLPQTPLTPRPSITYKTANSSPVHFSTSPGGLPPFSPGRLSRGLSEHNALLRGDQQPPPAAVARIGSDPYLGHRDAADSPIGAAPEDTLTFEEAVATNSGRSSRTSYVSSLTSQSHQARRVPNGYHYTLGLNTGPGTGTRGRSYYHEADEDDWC

In general, IC50 refers to the concentration needed to halve the response being measured. For the compound `CC(CCC(O)(c1ccccc1)c1ccccc1)(c1ccc(O)c(CN2CCCCCC2)c1)c1ccc(O)c(CN2CCCCCC2)c1` [Example 3, 4,4'-(4-Hydroxy-1-methyl-4,4-diphenylbutylidene)bis[2-[(hexahydro-1H-azepin-1-yl)methyl]phenol] oxalic acid salt], the results for the IC50 in test [1] and in test [2] were 1400 nM and 490 nM, respectively.

In the case of `CC(CCC(c1ccccc1)c1ccccc1)(c1ccc(O)c(CN2CCCCCC2)c1)c1ccc(O)c(CN2CCCCCC2)c1` [Example 6, 4,4'-(1-Methyl-4,4-diphenylbutylidene)bis[2-[(hexahydro-1H-azepin-1-yl)methyl]phenol] oxalic acid salt], the values for the IC50 in test [1] and in test [2] were 3150 nM and 740 nM, respectively.

Turning to `CC(CCCN(Cc1ccccc1)Cc1ccccc1)(c1ccc(O)c(CN2CCCCCC2)c1)c1ccc(O)c(CN2CCCCCC2)c1` [Example 10, 4,4'-[4-[Bis(phenylmethyl)amino]-1-methylbutylidene]-bis[2-[(hexahydro-1H-azepin-1yl)methyl]phenol] oxalic acid salt], the results for the IC50 in test [1] and in test [2] were 4200 nM and 430 nM, respectively.

On to `O=C(NCC(c1ccc(O)c(CN2CCCCCC2)c1)c1ccc(O)c(CN2CCCCCC2)c1)c1ccccc1` [Example 19, N-[2,2-Bis-(3-azepan-1-ylmethyl-4-hydroxyphenyl)ethyl]-benzamide oxalic acid salt], for which the IC50 was 2400 nM in test [1] and 17000 nM in test [2].

As for `O=C(NCC(c1ccc(O)c(CN2CCCCCC2)c1)c1ccc(O)c(CN2CCCCCC2)c1)C(c1ccccc1)c1ccccc1` [Example 20, N-[2,2 -Bis-(3-azepan-1-ylmethyl-4-hydroxyphenyl)ethyl]-2,2-diphenylacetamide oxalic acid salt], the IC50 in test [1] was found to be 2400 nM.

In the case of `CC(NC(=O)c1ccccc1)C(c1ccc(O)c(CN2CCCCCC2)c1)c1ccc(O)c(CN2CCCCCC2)c1` (stereo not drawn) [Example 21, N-[2,2-Bis-(3-azepan-1-ylmethyl-4-hydroxyphenyl)-1-methylethyl]benzamide oxalic acid salt], the IC50 in test [1] came to 2200 nM; in test [2] it was 14000 nM.

Consider “SNX-111: selective N-type calcium channel blocker, SNX-111 (CKGKGAKCSRLMYDCCTGSCRSGKC-NH2; disulfide 1-16, 15-25, 8-20; UniProt P05484 46-70, looked up)”, for which the “activity in a number of models of ischemia and pain” value in the test with N-type calcium channel is “demonstrated activity”.
